Assay results taken from patent US20080253996A1, “Use of Sdf-1 for the Treatment and/or Prevention of Neurological Diseases” (LABORATORIES SERONO SA, priority 2005, published 2008).

Assays:
sciatic nerve crush mice = experiment: Neuropathy induced by sciatic nerve crush, electrophysiological recording (CMAP); assay type: in vivo, mouse; conditions: for increase in the CMAP amplitude as compared to untreated mice: SDF-1α 30 μg/kg or μ/kg, IL-6 30 μ/kg s.c., significant at 15 dpl and 22dpl
Protocol: […] 8 week-old females C57bl/6 RJ mice (Elevage Janvier, Le Genest-St-Isle, France) were used. They were divided into 6 groups (n=6): • (a) nerve crush/Vehicle (Saline/0.02% BSA); • (b) nerve crush/SDF-1α (3 μg/kg); • (c) nerve crush/SDF-1α (10 μg/kg); • (d) nerve crush/SDF-1α (30 μg/kg); • (e) nerve crush/SDF-1α (100 μg/kg); • (f) nerve crush/IL-6 (30 μg/kg).
The animals were anaesthetized by inhalation of 3% Isoflurane (Baxter). The right sciatic nerve was surgically exposed at mid thigh level and crushed at 5 mm proximal to the trifurcation of the sciatic nerve. The nerve was crushed twice for 30s with a haemostatic forceps (width 1.5 mm; Koenig; Strasbourg; France) with a 90-degree rotation between each crush.
Electromyographical (EMG) testing was performed once before the surgery day and each week during 3 weeks following the operation.
The day of nerve crush surgery was considered as dpl 0 (dpl=day post lesion). No test was performed during the 4 days following the crush.
From the day of nerve injury to the end of the study, SDF-1α, IL-6 or Vehicle were administered daily by subcutaneous injections (s.c.) route, 5 days per week.
Electrophysiological recordings were performed using a Neuromatic 2000M electromyograph (EMG) (Dantec, Les Ulis, France). Mice were anaesthetized by inhalation of 3% Isofluran® (Baxter). The normal body temperature was maintained using a heated operating table (Minerve, Esternay, France).
Compound muscle action potential (CMAP) was measured in the gastrocnemius muscle after a single 0.2 ms stimulation of the sciatic nerve at a supramaximal intensity (12.8 mA). The amplitude (mV) and the latency (ms) of the action potential were measured on the operated leg. The measures was also registered on the contralateral (uncrushed) leg of Vehicle treated animals (Baseline). The amplitude is indicative of the number of active motor units, while the distal latency indirectly reflects motor nerve conduction and neuromuscular transmission velocities, which depends in part on the degree of myelination.
Global analysis of the data was performed using one-way ANOVA. Dunnett's test was used further, and data were compared to the “vehicle” control. The level of significance was set at a: p<0.001; b or **: p<0.01; c or *: p<0.05; d: p<0.1. The results were expressed as mean ±standard error of the mean (s.e.m.).
The sciatic nerve crush model described in Example 4 above was carried out to test SDF-1α variant as defined in SEQ ID NO: 4 and the mice were divided into the following 2 groups (n=6):
The SDF-1α variant used in this example and encoded by SEQ ID NO: 4 was expressed with an additional N terminal Methionine. The CMAP duration (time needed for a depolarization and a repolarization session) was also recorded.
The sciatic nerve crush model described in Example 4 above was carried out to test Met-SDF-1α (as defined in SEQ ID NO: 7) and the mice were divided into the following 2 groups (n=6):
(b) nerve crush/Met-SDF-1α variant at 100, 30, and 10 μg/kg s.c.

STZ-rats = experiment: Hot plate 52° C. test in STZ diabetic rats; assay type: in vivo, rat; conditions: D40 post-STZ, SDF-1α 10, 30, 100 μg/kg, IL-6 10 μg/kg s.c.
Protocol: Eight week-old male Sprague Dawley rats (Janvier, Le Genest Saint Isle, France) were randomly distributed in 6 experimental groups (n=10) as shown below.
Diabetes was induced by intravenous injection of a buffered solution of streptozotocin (Sigma, L'Isle d'Abeau Chesnes, France) at a dose of 55 mg/kg. STZ was prepared in 0.1 mol/l citrate buffer pH 4.5. The control group received an equivalent volume of citrate buffer. The day of STZ injection was considered as D0.
Treatment with SDF-1α with IL-6 or their matched vehicle was performed on daily basis from D11 to D40.
The animal was placed into a glass cylinder on a hot plate adjusted to 52° C. The latency of the first reaction was recorded (licking, brisk movement of the paws, little leaps or a jump to escape the heat) with a cutoff time of 30 s.

[1] = system: primary mixed cortical cultures stimulated with LPS; experiment: Cytokine release (TNF-α, IL-6) from LPS stimulated primary mixed cortical cultures; assay type: cell-based, mouse
Protocol: Culturing of primary cells was performed as described (Lubetzki et al., 1993) using brain tissue from embryos isolated from NMRI mice at 16 days post-coitum. Cerebral hemispheres were dissected from embryo brains, dissociated via trypsin digestion and the single cell suspension was seeded at 5×10^4 cells in 50 μl myelination medium per well onto BioCoat® poly-L-lysine coated 96-well plates (356516, Becton Dickinson). The myelination medium consisted of Bottenstein-Sato medium (Bottenstein and Sato, 1979; Sadir et al., 2001), supplemented with 1% FCS, 1% penicillin-streptomycin solution (Seromed) and recombinant platelet-derived growth factor AA (PDGF-AA, R&D Systems) at 10 ng/mL.
For testing the effects of SDF-1α and SDF-1α variant (as defined in SEQ ID NO: 4) on LPS stimulated cultures, cells were allowed to grow for two weeks. At day 14 cells were pre-incubated with increasing concentrations (0.001, 0.1 and 10 ng/ml) of the corresponding proteins into 25 μl of medium for three hours at 37° C. and 10% CO2. LPS was then supplemented to the cells at the concentration of 5 ng/ml into 25 μl of medium to obtain a final volume of 100 μl and incubated for 48 hours. Supernatants were collected at day 16 and the levels of TNF-α and IL-6 (the major cytokines released by activated microglia) were measured via specific ELISAs purchased from R&D systems (DuoSet mouse TNF-α ELISA DY410, mouse IL-6 ELISA DY406).
Global analysis of the data was performed using one-way ANOVA. Dunnett's test was used further, and data were compared to the “untreated cells”. The level of significance was set at a: p<0.001; b or **: p<0.01; c or *: p<0.05; d: p<0.1. The results were expressed as mean ±standard error of the mean (s.e.m.).

[2] = system: leukocytes recruited in the peritoneal cavity; experiment: In vivo model of peritoneal cell recruitment; set-up: species or system mouse; conditions: 4 μg i.p. in Balb/C mice, 4 hours post injection
Protocol: 8-12 week old, female Balb/C mice (Janvier, France) were injected intra peritoneally (i.p.) with 200 μl NaCl (0.9%, LPS free) or chemokine 4 μg (WT SDF-1α or SDF-1α variant according to SEQ ID NO:4 diluted in 200 μl NaCl (0.9%, LPS free). […] of WT or mutant SDF-1α, mice were sacrificed by CO2 asphyxiation, the peritoneal cavity was washed with 3×5 ml ice cold PBS and the total lavage was pooled for individual mice. Total cells collected were counted by haemocytometer (Neubauer, Germany).

[3] = pre-incubation 3 h (SDF proteins 0.001, 0.1, 10 ng/ml; IL-10 10 ng/ml; dexamethasone 25 pM), then LPS 5 ng/ml 48 h, ELISA, compared to untreated cells

Substance	increase in the CMAP amplitude as compared to untreated mice (sciatic nerve crush mice)	threshold latency in the hot plate test (STZ-rats)	levels of IL-6 secretion [1, 3]	levels of TNF-α secretion [1, 3]	best concentration for decrease of TNF-α and IL-6 secretion ([1]; tested 0.001, 0.1 and 10 ng/ml, LPS 5 ng/ml 48 h) [ng/mL]	leukocyte recruitment in the peritoneal cavity [2]	potency on CMAP latency compared with IL-6 (30 μg/kg) (sciatic nerve crush mice; 30 μg/kg s.c.)	CMAP latency vs vehicle treated mice (sciatic nerve crush mice; day 7, SDF-1α 30 μg/kg and 100 μg/kg, IL-6 30 μg/kg s.c.)	CMAP latency vs vehicle treated mice (sciatic nerve crush mice; dpl 15 and 22, 30 μg/kg and 100 μg/kg s.c.)
IL-6: reference (positive) control compound in nerve crush and STZ models [reference compound]	about 1.5 times	significantly lowered	–	–	–	–	–	–	–
SDF-1α: Human recombinant chemokine SDF-1α (SEQ ID NO: 1), produced in house, expressed in E. Coli cells	about 1.5 times	significantly lowered	significantly decreased	significantly decreased	10	recruits leukocytes	more potent than IL-6	significantly reduced	significant effect
